In patent US7795378B2, “Peptide compositions for treatment of sexual dysfunction” (Palatin Technologies, Inc., priority 2002, dated 2010):
*1 amine or outer side, *2 acyl side, *3 side chain or, on linkers, in order; H or OH if unused. Where a SMILES comes first, the peptide text is derived from it. [ ]: non-standard residue; d: D form. The star is where a group is joined. Arg(NO2) = N=C(NCCC[C@H](N)C(=O)O)N[N+](=O)[O-]; Ser(Bzl) = O=C([C@H](COCc1ccccc1)N[*:1])[*:2]; dPhe(4-Cl) = N[C@H](Cc1ccc(Cl)cc1)C(=O)O; d2Nal = N[C@H](Cc1ccc2ccccc2c1)C(=O)O; Cit = NC(=O)NCCC[C@H](N)C(=O)O; Orn = NCCC[C@H](N)C(=O)O; Ahp = NCCCCCCC(=O)O; Bn = c1ccc(C*)cc1

Tests used:
hMC3-R = target: T1, hMC3-R (Homo sapiens, UniProt P41968); test: Competitive inhibition binding assay with 125I-NDP-MSH, MC3 receptor; conditions: 10 μM peptide, 0 assigned when raw inhibition between −10% and 10%, read-out: % Inhibition at 10 μM concentration at MC3-Receptor
T1 construct: expressed in transfected cells; host or cells: HEK 293 cells (membranes)
Method: (§1) Competitive inhibition binding assay was conducted using membranes prepared from hMC3-R, hMC4-R, hMC5-R, and B-16 mouse melanoma cells (containing MC1-R) using 0.4 nM ^125I-NDP-MSH (0.2 nM for MCL-R) (New England Nuclear, Boston, Mass., USA) in 50 mM HEPES buffer containing 1 mM MgCl2, 2 mM CaCl2, and 5 mM KCl, at pH 7.2. The assay tube also contained a chosen concentration of the peptides of this invention, for determining inhibition of the binding of ^125I-NDP-MSH to its receptor. Non-specific binding was measured by complete inhibition of binding of ^125I-NDP-MSH in the assay in the presence of 1 μM α-MSH. Incubation was for 90 minutes at 37° C., after which the assay mixture was filtered and the membranes washed three times with ice cold buffer. The filter was dried and counted in a gamma counter for remaining radioactivity bound to the membranes. 100% specific binding was defined as the difference in radioactivity (cpm) bound to cell membranes in the absence and presence of 1 μM α-MSH. The cpm obtained in the presence of peptides of this invention were normalized with respect to 100% specific binding to determine the percent inhibition of ^125I-NDP-MSH binding. Each assay was conducted in triplicate.
(§2) The binding of the peptides of Examples 1 to 13, inclusive, to melanocortin receptors was evaluated, with results shown on Table 1. Relative binding was determined by competitive inhibition using an α-MSH analog, iodinated NDP-MSH. B16-Fl mouse melanoma cells were used as the source of MC1 receptors and HEK 293 cells, transfected with human melanocortin receptor sequences, were used as the source of MC3, MC4 and MC5 receptors. A standard competitive binding assay protocol as described above was followed, using ^125I-NDP-MSH as the radioligand. A “0” percent inhibition was assigned when the raw percent inhibition, as an average of at least triplicate measures, was between −10% and 10%; in the majority of instances, the raw percent inhibition was between −10% and 0% inhibition.

hMC5-R = target: T2, hMC5-R (Homo sapiens, UniProt P33032); test: Competitive inhibition binding assay with 125I-NDP-MSH, MC5 receptor; conditions: 10 μM peptide, 0 assigned when raw inhibition between −10% and 10%, read-out: % Inhibition at 10 μM concentration at MC5-Receptor
T2 construct: expressed in transfected cells; host or cells: HEK 293 cells (membranes)
Method: as §1, §2

hMC4-R = target: T3, hMC4-R (Homo sapiens, UniProt P32245); test: Competitive inhibition binding assay with 125I-NDP-MSH, MC4 receptor; conditions: 10 μM peptide, 0 assigned when raw inhibition between −10% and 10%, read-out: % Inhibition at 10 μM concentration at MC4-Receptor
T3 construct: expressed in transfected cells
Method: as §1, §2

[1] = target: T4, MC1-R (B16-F1 mouse melanoma cells) (Mus musculus, UniProt Q01727); test: Competitive inhibition binding assay with 125I-NDP-MSH, MC1 receptor; conditions: 10 μM peptide, 0 assigned when raw inhibition between −10% and 10%, read-out: % Inhibition at 10 μM concentration at MC1-Receptor
T4 construct: B-16 mouse melanoma cells (containing MC1-R); endogenous in cells; host or cells: B16-F1 mouse melanoma cells (membranes)
Method: as §1, §2

male Sprague-Dawley rats = test: Induction of penile erections in male rats; format: in vivo, rat
Method: The ability of the peptides of Examples 1 to 13 to induce penile erection in male rats was evaluated. Male Sprague-Dawley rats weighing 200-250 g were kept on a 12 hour on/off light cycle with food and water ad libitum. All behavioral studies were performed between 10 a.m. and 5 p.m. Groups of 4-8 rats were treated with peptides at a variety of doses via intravenous administration. Immediately after administration, rats were placed into individual polystyrene cages (27 cm long, 16 cm wide, and 25 cm high) for behavioral observation.
The efficacious dose of NH2—(CH2)6CO-Ser(Bzl)-D-Phe(4-Cl)-Arg, made as in Example 1 above, to induce penile erection in Sprague Dawley rats by intravenous dosing and oral administration was determined. […] NH2—(CH2)6CO-Ser(Bzl)-D-Phe(4-Cl)-Arg was efficacious at doses as low as 0.1 to 1 μg/kg of body weight when administered by oral means, and at doses lower than 0.001 μg/kg of body weight when administered by intravenous means.
The efficacious dose of NH2—(CH2)6—CO-Ser(Bzl)-D-Phe(4-Cl)-Arg(NO2), made as in Example 5 above, to induce penile erection in Sprague Dawley rats by intravenous dosing was determined. […] It was determined that NH2—(CH2)6—CO-Ser(Bzl)-D-Phe(4-Cl)-Arg(NO2) was efficacious at doses as low as 0.001 to 10 μg/kg of body weight when administered by intravenous means, with efficacy determined by induction of penile erection in 100% of animals. The optimal dose response was at 1 μg/kg of body weight. FIG. 1 depicts the dose response profile, with the error bars depicting standard deviation where n (the number of animals) is between 8 and 19, depending on the dose point.
The efficacious dose of NH2—(CH2)6—CO-Ser(Bzl)-D-Phe(4-Cl)-Arg(NO2), made as in Example 5 above, to induce penile erection in Sprague Dawley rats by intranasal administration using a micropipetor to deliver 25 μL of solution into one nostril was determined. […] It was determined that NH2—(CH2)6—CO-Ser(Bzl)-D-Phe(4-Cl)-Arg(NO2) was efficacious at doses between 0.01 μg/kg and 100 μg/kg of body weight when administered by intranasal means. The peak dose response was at an intranasal dose of 0.1 μg/kg of body weight.

male rats = test: Induced penile erections after pre-administration of MC4-R antagonist SHU9119; format: in vivo, rat; conditions: SHU9119 approximately 5 minutes before peptide
Excerpt: It is known that MC4-R antagonists inhibit the erectile activity of MC4-R agonists in a dose dependent manner. Such antagonists include SHU9119, a nonselective melanocortin antagonist of the formula Ac-Nle-cyc/o(-Asp-His-D-Nal(2′)-Arg-Trp-Lys)-NH2 (Hruby V. J., Lu D., Sharma S. D., et al. Cyclic lactam alpha-melanotropin analogues of Ac-Nle^4-cyclo[Asp^5, D-Phe^7, Lys^10]-NH2 with bulky aromatic amino acids at position 7 show high antagonist potency and selectivity at specific melanocortin receptors. J Med Chem 38:3454-3461 (1995)). Antagonists such as SHU9119 are known to inhibit MT-II and other known melanocortin receptor-specific agonists that induce erectile activity. SHU9119 was administered to male rats approximately 5 minutes before administration of either NH2—(CH2)6CO-Ser(Bzl)-D-Phe(4-Cl)-Arg or NH2—(CH2)6CO-Ser(Bzl)-D-Phe(4-Cl)-Arg-Trp-NH2, with Ac-Nle-cyc/o(Asp-His-D-Phe-Arg-Trp-Lys)-OH, a known MC4-R agonist, as a positive control.

T4 sequence (Q01727 whole entry): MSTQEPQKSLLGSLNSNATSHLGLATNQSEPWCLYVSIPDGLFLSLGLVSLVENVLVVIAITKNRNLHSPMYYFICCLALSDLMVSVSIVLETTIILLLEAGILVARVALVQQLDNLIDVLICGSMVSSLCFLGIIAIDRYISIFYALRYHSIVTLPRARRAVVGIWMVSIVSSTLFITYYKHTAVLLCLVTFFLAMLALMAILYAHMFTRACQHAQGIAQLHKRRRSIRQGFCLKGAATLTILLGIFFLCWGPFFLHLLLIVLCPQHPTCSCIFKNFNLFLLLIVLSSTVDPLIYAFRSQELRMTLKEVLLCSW
T2 sequence (P33032 whole entry): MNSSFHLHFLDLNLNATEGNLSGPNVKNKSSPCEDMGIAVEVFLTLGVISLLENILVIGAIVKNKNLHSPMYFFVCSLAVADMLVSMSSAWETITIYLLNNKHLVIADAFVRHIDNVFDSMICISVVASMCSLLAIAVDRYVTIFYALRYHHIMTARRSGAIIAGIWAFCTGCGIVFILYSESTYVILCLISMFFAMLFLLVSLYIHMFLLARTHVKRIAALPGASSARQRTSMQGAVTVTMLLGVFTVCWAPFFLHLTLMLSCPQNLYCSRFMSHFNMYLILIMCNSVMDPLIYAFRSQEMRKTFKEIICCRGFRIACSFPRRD
T1 sequence (P41968 whole entry): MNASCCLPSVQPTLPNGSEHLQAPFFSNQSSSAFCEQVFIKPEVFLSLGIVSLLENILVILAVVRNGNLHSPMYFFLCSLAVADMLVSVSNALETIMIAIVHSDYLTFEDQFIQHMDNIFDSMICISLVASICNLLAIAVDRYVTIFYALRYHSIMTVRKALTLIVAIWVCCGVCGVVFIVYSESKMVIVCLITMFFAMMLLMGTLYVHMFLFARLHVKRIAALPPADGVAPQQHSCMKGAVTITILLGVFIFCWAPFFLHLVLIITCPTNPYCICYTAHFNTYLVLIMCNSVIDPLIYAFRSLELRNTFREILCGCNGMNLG
T3 sequence (P32245 whole entry): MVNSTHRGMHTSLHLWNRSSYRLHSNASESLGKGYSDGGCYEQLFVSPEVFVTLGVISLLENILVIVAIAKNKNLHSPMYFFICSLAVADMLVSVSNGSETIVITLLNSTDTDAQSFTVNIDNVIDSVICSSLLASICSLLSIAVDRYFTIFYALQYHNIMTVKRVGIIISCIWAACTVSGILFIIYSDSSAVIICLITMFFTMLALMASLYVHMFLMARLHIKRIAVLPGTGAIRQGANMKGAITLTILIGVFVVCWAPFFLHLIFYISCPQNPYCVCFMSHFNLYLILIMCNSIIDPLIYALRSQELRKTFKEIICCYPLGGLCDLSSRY

| Molecule | inhibition at 10 µM (hMC3-R) [%] | inhibition at 10 µM (hMC5-R) [%] | inhibition at 10 µM (hMC4-R) [%] | inhibition at 10 µM [1] [%] | animals with induction of penile erection at efficacious doses (male Sprague-Dawley rats; intravenous, 0.001 to 10 μg/kg) [%] | peak (optimal) dose response, intranasal (male Sprague-Dawley rats; male Sprague Dawley rats) [µg/kg] | peak (optimal) dose response, intranasal (male Sprague-Dawley rats; male Sprague Dawley rats, listed as NH2—(CH2)6Co-Ser(Bzl)-D-Phe(4-Cl)-Arg(NO2)) | optimal dose response, intravenous (male Sprague-Dawley rats; male Sprague Dawley rats, intravenous) [µg/kg] | effect of SHU9119 pre-administration on induced erections (male rats) |
| --- | --- | --- | --- | --- | --- | --- | --- | --- | --- |
| CC(=O)N[C@@H](COCc1ccccc1)C(=O)N[C@H](Cc1ccc(Cl)cc1)C(=O)N[C@@H](CCCNC(=N)N)C(=O)O [Ac-Ser(Bzl)-D-Phe(4-Cl)-Arg] (Ac-Ser(Bn)-[dPhe(4-Cl)]-Arg-OH) | 0 | 0 | 0 | 0 | – | – | – | – | – |
| C[C@H](NC(=O)CCCCCCN)C(=O)N[C@H](Cc1ccc(Cl)cc1)C(=O)N[C@@H](CCCNC(=N)N)C(=O)O [NH2—(CH2)6—CO-Ala-D-Phe(4-Cl)-Arg] (H-[Ahp]A[dPhe(4-Cl)]R-OH) | 0 | 0 | 0 | 0 | – | – | – | – | – |
| C[C@@H](NC(=O)[C@H](COCc1ccccc1)NC(=O)CCCCCCN)C(=O)N[C@@H](CCCNC(=N)N)C(=O)O [NH2—(CH2)6—CO-Ser(Bzl)-D-Ala-Arg] (H-[Ahp]S(Bn)[dA]R-OH) | 0 | 0 | 0 | 0 | – | – | – | – | – |
| N=C(N)NCCC[C@H](NC(=O)[C@@H](Cc1ccc2ccccc2c1)NC(=O)[C@H](COCc1ccccc1)NC(=O)CCCCCCN)C(N)=O [NH2—(CH2)6—CO-Ser(Bzl)-D-Nal 2-Arg-NH2] (H-[Ahp]S(Bn)[d2Nal]R-NH2) | 0 | 0 | 0 | 0 | – | – | – | – | – |
| N=C(N)NCCC[C@H](NC(=O)[C@@H](Cc1ccc2ccccc2c1)NC(=O)[C@H](COCc1ccccc1)NC(=O)CCCCCCN)C(=O)O [NH2—(CH2)6—CO-Ser(Bzl)-D-Nal 2-Arg] (H-[Ahp]S(Bn)[d2Nal]R-OH) | 0 | 0 | 0 | 0 | – | – | – | – | – |
| C[C@H](NC(=O)[C@@H](Cc1ccc(Cl)cc1)NC(=O)[C@H](COCc1ccccc1)NC(=O)CCCCCCN)C(=O)O [NH2—(CH2)6—CO-Ser(Bzl)-D-Phe(4-Cl)-Ala] (H-[Ahp]S(Bn)[dPhe(4-Cl)]A-OH) | 0 | 0 | 0 | 0 | – | – | – | – | – |
| NCCCCCCC(=O)N[C@@H](COCc1ccccc1)C(=O)N[C@H](Cc1ccc(Cl)cc1)C(=O)N[C@@H](CCCNC(N)=N[N+](=O)[O-])C(=O)O [NH2—(CH2)6—CO-Ser(Bzl)-D-Phe(4-Cl)-Arg(NO2)] (H-[Ahp]S(Bn)[dPhe(4-Cl)][Arg(NO2)]-OH) | 0 | 0 | 0 | 0 | 100 | 0.1 | about 0.1 μg/kg | 1 | – |
| N=C(N)NCCC[C@H](NC(=O)[C@@H](Cc1ccc(Cl)cc1)NC(=O)[C@H](COCc1ccccc1)NC(=O)CCCCCCN)C(N)=O [NH2—(CH2)6—CO-Ser(Bzl)-D-Phe(4-Cl)-Arg-NH2] (H-[Ahp]S(Bn)[dPhe(4-Cl)]R-NH2) | 0 | 0 | 0 | 0 | – | – | – | – | – |
| NH2—(CH2)6CO-Ser(Bzl)-D-Phe(4-Cl)-Arg-Trp-NH2 ({NH2‑(CH2)6‑CO}-[Ser(Bzl)][dPhe(4-Cl)]RW-NH2) | – | – | – | – | – | – | – | – | resulted in erections at a rate equivalent to that obtained without pre-administration of SHU9119 |

Now from value to molecule, other results behind:

| inhibition at 10 µM (hMC3-R) [%] | inhibition at 10 µM (hMC5-R) [%] | inhibition at 10 µM (hMC4-R) [%] | inhibition at 10 µM [1] [%] | Molecule | animals with induction of penile erection at efficacious doses (male Sprague-Dawley rats; intravenous, 0.001 to 10 μg/kg) [%] | peak (optimal) dose response, intranasal (male Sprague-Dawley rats; male Sprague Dawley rats) [µg/kg] | peak (optimal) dose response, intranasal (male Sprague-Dawley rats; male Sprague Dawley rats, listed as NH2—(CH2)6Co-Ser(Bzl)-D-Phe(4-Cl)-Arg(NO2)) | optimal dose response, intravenous (male Sprague-Dawley rats; male Sprague Dawley rats, intravenous) [µg/kg] | effect of SHU9119 pre-administration on induced erections (male rats) |
| --- | --- | --- | --- | --- | --- | --- | --- | --- | --- |
| 0 | 0 | 0 | 0 | NCCCCCCC(=O)N[C@@H](COCc1ccccc1)C(=O)N[C@H](Cc1ccc(Cl)cc1)C(=O)N[C@@H](CCCNC(N)=O)C(=O)O [NH2—(CH2)6—CO-Ser(Bzl)-D-Phe(4-Cl)-Cit] (H-[Ahp]S(Bn)[dPhe(4-Cl)][Cit]-OH) | – | – | – | – | – |
| 0 | 0 | 0 | 0 | NCCCCCCC(=O)N[C@@H](COCc1ccccc1)C(=O)N[C@H](Cc1ccc(Cl)cc1)C(=O)N[C@@H](CCCCN)C(=O)O [NH2—(CH2)6—CO-Ser(Bzl)-D-Phe(4-Cl)-Lys] (H-[Ahp]S(Bn)[dPhe(4-Cl)]K-OH) | – | – | – | – | – |
| 0 | 0 | 0 | 0 | NCCCCCCC(=O)N[C@@H](COCc1ccccc1)C(=O)N[C@H](Cc1ccc(Cl)cc1)C(=O)N[C@@H](CCCN)C(=O)O [NH2—(CH2)6—CO-Ser(Bzl)-D-Phe(4-Cl)-Orn] (H-[Ahp]S(Bn)[dPhe(4-Cl)][Orn]-OH) | – | – | – | – | – |
| 0 | 0 | 0 | 0 | N=C(N)NCCC[C@H](NC(=O)[C@@H](Cc1ccc(Cl)cc1)NC(=O)[C@@H](N)COCc1ccccc1)C(=O)O [Ser(Bzl)-D-Phe(4-Cl)-Arg] (H-Ser(Bn)-[dPhe(4-Cl)]-Arg-OH) | – | – | – | – | – |
